This is an account of results in patent publication US20180049438A1, “NITRIFICATION INHIBITOR COMPOSITIONS AND METHODS FOR PREPARING THE SAME” (DOW AGROSCIENCES LLC, priority 2014, published 2018).

The data set is described as follows: Solubility properties of the water soluble polar solvents (nitrapyrin solubility, water solubility). The following applies: water solubility of the polar solvent.

`COC(C)COC(C)CO` (stereo not shown) [Dowanol DPM, dipropylene glycol monomethyl ether] showed a water solubility of 100%.
